Measured values as given in PMC7782793, “Hydroxamic acid-modified peptide microarrays for profiling isozyme-selective interactions and inhibition of histone deacetylases” (Nature Communications, 2021).
Where “and” joins values, the source holds several entries; their conditions need not be identical. Equal entries are not always repeated. Marks after values point to notes of the source that are not given here. Non-standard residues stand in square brackets, D forms with d. Residues, ends and D or L forms follow the SMILES beside them. *: point of attachment. Asu = N[C@@H](CCCCCC(=O)O)C(=O)O; NHOH = ON*

Tests used:
Assay type in all cases: biochemical
[1] = target: T1, HDAC6 (Homo sapiens, UniProt Q9UBN7); assay: HDAC inhibition assay (fluorogenic, Ac-Leu-Gly-Lys(Ac)-AMC); conditions: HDAC6, replicates
T1 construct: HDAC6 (full length, BPS Bioscience, cat. #: 50056); purchased BPS Bioscience 50056
T1 sequence (Q9UBN7 1-1215): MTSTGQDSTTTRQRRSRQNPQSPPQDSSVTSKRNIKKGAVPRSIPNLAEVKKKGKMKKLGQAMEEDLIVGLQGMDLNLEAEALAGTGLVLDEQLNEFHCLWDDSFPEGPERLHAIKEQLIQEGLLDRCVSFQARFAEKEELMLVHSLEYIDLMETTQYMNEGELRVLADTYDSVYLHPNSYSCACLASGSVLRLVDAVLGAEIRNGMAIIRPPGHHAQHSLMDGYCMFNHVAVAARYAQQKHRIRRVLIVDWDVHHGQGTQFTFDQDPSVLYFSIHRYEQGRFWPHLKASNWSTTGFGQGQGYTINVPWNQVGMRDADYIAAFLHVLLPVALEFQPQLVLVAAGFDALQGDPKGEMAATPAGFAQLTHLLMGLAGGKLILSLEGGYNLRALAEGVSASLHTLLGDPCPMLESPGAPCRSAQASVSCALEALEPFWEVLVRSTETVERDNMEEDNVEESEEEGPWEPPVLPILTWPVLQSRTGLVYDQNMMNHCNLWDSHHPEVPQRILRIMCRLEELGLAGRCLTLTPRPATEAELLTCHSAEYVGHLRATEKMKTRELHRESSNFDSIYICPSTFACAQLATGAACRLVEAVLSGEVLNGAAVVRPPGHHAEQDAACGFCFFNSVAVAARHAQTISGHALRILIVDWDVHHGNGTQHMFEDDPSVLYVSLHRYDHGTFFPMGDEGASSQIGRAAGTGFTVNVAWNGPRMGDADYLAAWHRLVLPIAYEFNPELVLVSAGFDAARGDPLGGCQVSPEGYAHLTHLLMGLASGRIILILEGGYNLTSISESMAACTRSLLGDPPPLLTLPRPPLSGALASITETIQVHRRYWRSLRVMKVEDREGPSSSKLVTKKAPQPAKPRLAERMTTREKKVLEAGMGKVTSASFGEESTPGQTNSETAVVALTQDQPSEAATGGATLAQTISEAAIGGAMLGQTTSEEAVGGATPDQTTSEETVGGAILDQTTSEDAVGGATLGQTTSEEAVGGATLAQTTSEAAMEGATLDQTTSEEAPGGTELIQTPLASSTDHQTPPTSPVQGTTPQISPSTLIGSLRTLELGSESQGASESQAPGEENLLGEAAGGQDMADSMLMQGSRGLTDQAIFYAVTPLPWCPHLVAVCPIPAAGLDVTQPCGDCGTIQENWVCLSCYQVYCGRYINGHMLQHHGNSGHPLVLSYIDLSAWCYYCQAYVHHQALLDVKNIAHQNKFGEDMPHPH

[2] = target: T2, HDAC8 (Homo sapiens, UniProt Q9BY41); assay: HDAC inhibition assay (fluorogenic, Ac-Leu-Gly-Lys(Tfa)-AMC); conditions: for HDAC8 dose-response data (relative enzyme activity, replicate values), Fig. 6 + S. Fig. 10: two replicate columns per inhibitor; for HDAC8 dose-response data (relative enzyme activity), Fig. 6 + S. Fig. 10: duplicate columns
T2 construct: HDAC8 (full length, C-terminal His tag, BPS Bioscience, cat. #: 50008); purchased BPS Bioscience 50008
T2 sequence (Q9BY41 1-377): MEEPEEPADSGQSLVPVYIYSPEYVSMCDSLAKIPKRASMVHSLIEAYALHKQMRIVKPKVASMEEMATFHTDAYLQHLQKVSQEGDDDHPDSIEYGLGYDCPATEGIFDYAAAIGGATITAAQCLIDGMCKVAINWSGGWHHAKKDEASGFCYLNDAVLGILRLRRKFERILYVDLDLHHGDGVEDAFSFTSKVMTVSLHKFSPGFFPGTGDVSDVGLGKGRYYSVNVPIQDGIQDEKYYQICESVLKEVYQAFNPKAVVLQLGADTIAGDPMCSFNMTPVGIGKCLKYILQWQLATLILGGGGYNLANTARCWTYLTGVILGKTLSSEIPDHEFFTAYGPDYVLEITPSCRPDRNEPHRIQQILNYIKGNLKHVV

[3] = target: T3, HDAC3/NCoR2 (Homo sapiens, UniProt O15379); assay: HDAC inhibition assay (fluorogenic, Ac-Leu-Gly-Lys(Ac)-AMC); conditions: for HDAC3 dose-response data (relative enzyme activity), Fig. 6 + S. Fig. 10: duplicate columns
T3 construct: HDAC3/NCoR2 (full length, C-terminal His tag, NCoR2 N-terminal GST tag); purchased BPS Bioscience 50003
T3 sequence (O15379 whole entry): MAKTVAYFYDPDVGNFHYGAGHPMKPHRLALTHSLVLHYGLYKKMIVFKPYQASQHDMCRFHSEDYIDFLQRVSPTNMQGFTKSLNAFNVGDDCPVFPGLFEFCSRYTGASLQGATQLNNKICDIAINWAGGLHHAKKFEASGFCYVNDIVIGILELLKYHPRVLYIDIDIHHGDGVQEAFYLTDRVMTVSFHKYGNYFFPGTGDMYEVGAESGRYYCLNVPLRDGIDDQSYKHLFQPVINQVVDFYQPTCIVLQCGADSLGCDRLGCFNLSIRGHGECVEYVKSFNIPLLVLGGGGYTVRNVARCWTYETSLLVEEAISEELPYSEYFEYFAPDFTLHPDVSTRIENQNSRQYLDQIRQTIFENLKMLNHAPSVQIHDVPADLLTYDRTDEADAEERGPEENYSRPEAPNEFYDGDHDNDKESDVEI
T3 sequence (Q9Y618 389-480 partner limits assumed): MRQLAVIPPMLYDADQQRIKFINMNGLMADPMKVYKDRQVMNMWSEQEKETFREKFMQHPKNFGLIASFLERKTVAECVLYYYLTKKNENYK

CC[C@H](C)[C@H](NC(=O)[C@H](CCC(=O)O)NC(=O)[C@H](CCCNC(=N)N)NC(=O)[C@H](CO)NC(=O)[C@@H](NC(=O)[C@@H](NC(=O)[C@@H](NC(=O)[C@H](CO)NC(=O)[C@H](CCCNC(=N)N)NC(=O)[C@H](CCCCCC(=O)NO)NC(=O)[C@H](CC(N)=O)NC(=O)[C@H](Cc1ccc(O)cc1)NC(=O)[C@H](Cc1c[nH]cn1)NC(C)=O)[C@@H](C)O)[C@@H](C)CC)[C@@H](C)O)C(=O)N[C@@H](CCC(N)=O)C(=O)N[C@H](C(=O)N[C@@H](C)C(=O)N[C@@H](Cc1c[nH]c2ccccc12)C(N)=O)[C@@H](C)O [12a] (Ac-HYN[Asu](NHOH)RSTITSREIQTAW-NH2)
residual enzymatic activity relative to control wells ([1]; log[inhibitor(M)] -4.30103): 1.727 and 0.8308
residual enzymatic activity relative to control wells ([1]; log[inhibitor(M)] -5): 2.004 and 3.233
residual enzymatic activity relative to control wells ([1]; log[inhibitor(M)] -5.69897): 5.047 and 6.177
residual enzymatic activity relative to control wells ([1]; log[inhibitor(M)] -6.39794): 15.6412 and 12.824
residual enzymatic activity relative to control wells ([1]; log[inhibitor(M)] -7.09691): 40.6476 and 34.5345
residual enzymatic activity relative to control wells ([1]; log[inhibitor(M)] -7.79588): 71.7467 and 73.0064
residual enzymatic activity relative to control wells ([1]; log[inhibitor(M)] -8.49485): 80.6815 and 89.6415
residual enzymatic activity relative to control wells ([1]; log[inhibitor(M)] -9.19382): 82.3274 and 88.4313
residual enzymatic activity relative to control wells ([1]; log[inhibitor(M)] -9.89279): 83.6621 and 89.4789
residual enzymatic activity relative to control wells ([1]; log[inhibitor(M)] -10.585): 102.86 and 101.255
Ki [2]: 672 ± 2 nM
HDAC8 dose-response data (relative enzyme activity, replicate values), Fig. 6 + S. Fig. 10 ([2]; Inhibitor conc [M] -8.49485 (log)): 96.596 and 95.5531
HDAC8 dose-response data (relative enzyme activity, replicate values), Fig. 6 + S. Fig. 10 ([2]; Inhibitor conc [M] -9.19382 (log)): 96.9206 and 97.7957
HDAC8 dose-response data (relative enzyme activity, replicate values), Fig. 6 + S. Fig. 10 ([2]; Inhibitor conc [M] given as -7.09691 (log)): 89.149 and 90.0695
HDAC8 dose-response data (relative enzyme activity, replicate values), Fig. 6 + S. Fig. 10 ([2]; Inhibitor conc [M] given as -7.79588 (log)): 96.5655 and 96.7922
HDAC8 dose-response data (relative enzyme activity, replicate values), Fig. 6 + S. Fig. 10 ([2]; Inhibitor conc [M] given as -9.89279 (log)): 97.4718 and 97.8478
HDAC8 dose-response data (relative enzyme activity, replicate values), Fig. 6 + S. Fig. 10 ([2]; Inhibitor conc [M] given as -10.585 (log)): 100,321515* and 100,605272*
HDAC8 dose-response data (relative enzyme activity), Fig. 6 + S. Fig. 10 ([2]; Inhibitor conc [M] -4.30103): 4.131 and 3.99
HDAC8 dose-response data (relative enzyme activity), Fig. 6 + S. Fig. 10 ([2]; Inhibitor conc [M] -5): 13.2204 and 13.7487
HDAC8 dose-response data (relative enzyme activity), Fig. 6 + S. Fig. 10 ([2]; Inhibitor conc [M] -5.69897): 34.8849 and 37.2156
HDAC8 dose-response data (relative enzyme activity), Fig. 6 + S. Fig. 10 ([2]; Inhibitor conc [M] -6.39794): 67.169 and 68.3219
Ki [3]: 10.6 ± 0.1 nM
HDAC3 dose-response data (relative enzyme activity), Fig. 6 + S. Fig. 10 ([3]; log[inhibitor(M)] -4.30103): 0.7368 and 0.5682
HDAC3 dose-response data (relative enzyme activity), Fig. 6 + S. Fig. 10 ([3]; log[inhibitor(M)] -5): 1.408 and 1.481
HDAC3 dose-response data (relative enzyme activity), Fig. 6 + S. Fig. 10 ([3]; log[inhibitor(M)] -5.69897): 5.267 and 4.363
HDAC3 dose-response data (relative enzyme activity), Fig. 6 + S. Fig. 10 ([3]; log[inhibitor(M)] -6.39794): 16.4324 and 13.9407
